According to US12065436B2, “Cardiac sarcomere inhibitors” (Cytokinetics, Inc., priority 2018, dated 2024):

Target: bovine cardiac myofibrils (full-length cardiac myosin ATPase in the native sarcomere) (Bos taurus (Bovine), UniProt Q9BE39)
Test: Skinned bovine cardiac myofibril ATPase assay (PK/LDH-coupled)
Format: biochemical
Conditions: Ca2+ activating to 75% of maximal rate; for CDMF75 IC15: concentration giving 15% inhibition; for IC50: read-out: CDMF75 IC50
Summary of the method: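 Triton-skinned bovine left-ventricle myofibrils (1 mg/mL) in PM 12 buffer (12 mM PIPES, 2 mM MgCl2, pH 6.8) with 50 μM ATP, 0.6 mM EGTA and CaCl2 set for 50% or 75% activation. Steady-state ATPase inhibition followed by PK/LDH-coupled NADH oxidation at 340 nm.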

Sequence of bovine cardiac myofibrils (full-length cardiac myosin ATPase in the native sarcomere) (Q9BE39 whole entry): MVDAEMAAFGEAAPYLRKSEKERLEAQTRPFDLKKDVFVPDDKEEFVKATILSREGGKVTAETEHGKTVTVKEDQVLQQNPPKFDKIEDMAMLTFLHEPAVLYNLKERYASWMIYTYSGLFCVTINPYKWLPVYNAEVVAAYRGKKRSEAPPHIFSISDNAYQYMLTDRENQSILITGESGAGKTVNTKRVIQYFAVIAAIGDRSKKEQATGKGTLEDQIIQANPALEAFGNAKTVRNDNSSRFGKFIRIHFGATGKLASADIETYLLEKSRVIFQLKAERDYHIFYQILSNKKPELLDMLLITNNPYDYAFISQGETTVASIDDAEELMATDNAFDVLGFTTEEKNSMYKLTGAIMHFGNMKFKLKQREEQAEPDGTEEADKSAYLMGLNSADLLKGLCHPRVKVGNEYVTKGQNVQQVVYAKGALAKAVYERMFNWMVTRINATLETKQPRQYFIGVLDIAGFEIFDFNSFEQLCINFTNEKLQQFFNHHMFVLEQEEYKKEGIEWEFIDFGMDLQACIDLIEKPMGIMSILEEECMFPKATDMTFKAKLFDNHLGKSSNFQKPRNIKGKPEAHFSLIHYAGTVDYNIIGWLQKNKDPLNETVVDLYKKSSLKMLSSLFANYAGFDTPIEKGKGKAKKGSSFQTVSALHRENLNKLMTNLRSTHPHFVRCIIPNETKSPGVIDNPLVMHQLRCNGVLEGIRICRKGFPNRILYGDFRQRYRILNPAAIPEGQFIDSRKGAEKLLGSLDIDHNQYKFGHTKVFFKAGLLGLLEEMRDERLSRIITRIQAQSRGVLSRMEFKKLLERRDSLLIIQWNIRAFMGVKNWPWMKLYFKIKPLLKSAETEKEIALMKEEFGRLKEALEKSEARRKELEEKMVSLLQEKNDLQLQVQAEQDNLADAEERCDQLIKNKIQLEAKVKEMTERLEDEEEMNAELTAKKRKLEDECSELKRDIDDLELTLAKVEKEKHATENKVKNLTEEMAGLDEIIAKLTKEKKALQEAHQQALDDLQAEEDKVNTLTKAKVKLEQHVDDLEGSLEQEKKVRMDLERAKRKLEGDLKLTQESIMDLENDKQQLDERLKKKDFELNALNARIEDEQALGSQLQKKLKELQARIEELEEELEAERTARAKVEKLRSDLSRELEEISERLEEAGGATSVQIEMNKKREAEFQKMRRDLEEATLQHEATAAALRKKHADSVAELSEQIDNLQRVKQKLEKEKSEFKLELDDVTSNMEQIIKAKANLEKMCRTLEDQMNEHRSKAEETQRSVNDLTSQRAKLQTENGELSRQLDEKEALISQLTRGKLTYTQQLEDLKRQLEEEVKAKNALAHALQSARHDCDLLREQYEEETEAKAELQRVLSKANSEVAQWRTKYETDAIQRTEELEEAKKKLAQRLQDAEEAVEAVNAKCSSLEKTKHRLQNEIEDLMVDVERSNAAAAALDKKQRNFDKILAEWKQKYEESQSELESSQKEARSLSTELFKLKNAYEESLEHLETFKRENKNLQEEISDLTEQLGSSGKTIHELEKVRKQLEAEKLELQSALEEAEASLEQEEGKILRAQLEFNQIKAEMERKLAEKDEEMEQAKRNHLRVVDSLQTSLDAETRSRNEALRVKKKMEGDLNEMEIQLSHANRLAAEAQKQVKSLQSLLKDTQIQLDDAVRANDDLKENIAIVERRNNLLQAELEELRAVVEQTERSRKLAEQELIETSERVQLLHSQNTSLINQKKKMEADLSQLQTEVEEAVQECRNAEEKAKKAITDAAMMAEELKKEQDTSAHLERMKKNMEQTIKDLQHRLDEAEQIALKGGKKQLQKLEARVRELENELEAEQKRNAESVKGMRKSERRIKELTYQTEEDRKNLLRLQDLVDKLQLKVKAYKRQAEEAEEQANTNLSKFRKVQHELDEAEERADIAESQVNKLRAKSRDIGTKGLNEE
Sequence of bovine cardiac myofibrils (full-length cardiac myosin ATPase in the native sarcomere) (P85100 whole entry partner): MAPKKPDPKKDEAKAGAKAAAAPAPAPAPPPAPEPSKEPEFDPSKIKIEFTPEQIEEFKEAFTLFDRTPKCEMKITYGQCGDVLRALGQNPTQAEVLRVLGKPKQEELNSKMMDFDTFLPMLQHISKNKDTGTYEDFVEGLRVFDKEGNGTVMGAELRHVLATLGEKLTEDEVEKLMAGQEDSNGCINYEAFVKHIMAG
Sequence of bovine cardiac myofibrils (full-length cardiac myosin ATPase in the native sarcomere) (Q3SZE5 whole entry partner): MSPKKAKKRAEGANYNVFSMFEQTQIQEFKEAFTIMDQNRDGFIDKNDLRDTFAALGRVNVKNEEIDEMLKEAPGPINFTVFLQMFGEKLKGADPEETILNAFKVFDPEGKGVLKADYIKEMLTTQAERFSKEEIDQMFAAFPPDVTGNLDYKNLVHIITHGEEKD

SMILES | CDMF75 IC15 [µM] | IC50 [µM]
CC(C)NC(=O)N[C@@H]1CCc2cc(-c3noc(C(F)F)n3)ccc21 [Compound 292, (R)-1-(5-(5-(difluoromethyl)-1,2,4-oxadiazol-3-yl)-2,3-dihydro-1H-inden-1-yl)-3-isopropylurea] | 39.2 | > 39.2
COCc1nc(-c2ccc3c(c2)OC[C@@H]3NC(=O)c2cc(C)nn2C)no1 [Compound 225, (R)-N-(6-(5-(methoxymethyl)-1,2,4-oxadiazol-3-yl)-2,3-dihydrobenzofuran-3-yl)-1,3-dimethyl-1H-pyrazole-5-carboxamide] | 39.2 | 39.2
Cc1ncoc1C(=O)N[C@@H]1COc2cc(-c3noc(C(F)F)n3)ccc21 [Compound 453, (S)-N-(6-(5-(difluoromethyl)-1,2,4-oxadiazol-3-yl)-2,3-dihydrobenzofuran-3-yl)-4-methyloxazole-5-carboxamide] | 0.2 | 0.7
CCc1nc(-c2ccc3c(c2)CC[C@H]3NC(=O)OCC2CN(C(C)=O)C2)no1 [Compound 360, (1-acetylazetidin-3-yl)methyl (R)-(5-(5-ethyl-1,2,4-oxadiazol-3-yl)-2,3-dihydro-1H-inden-1-yl)carbamate] | 21.6 | > 39.2
O=C(N[C@@H]1CCc2cc(-c3noc(C4CC4)n3)ccc21)OCC(F)F [Compound 334, 2,2-difluoroethyl (R)-(5-(5-cyclopropyl-1,2,4-oxadiazol-3-yl)-2,3-dihydro-1H-inden-1-yl)carbamate] | 0.6 | 1.9
CCc1noc(-c2ccc3c(c2)CC[C@H]3NC(=O)c2ccnn2C)n1 [Compound 257, (R)-N-(5-(3-ethyl-1,2,4-oxadiazol-5-yl)-2,3-dihydro-1H-inden-1-yl)-1-methyl-1H-pyrazole-5-carboxamide] | 0.4 | 1
CCc1nc(-c2ccc3c(c2)OCC3NC(=O)c2cnn(C)c2)no1 (stereo not shown) [Compound 239, N-(6-(5-ethyl-1,2,4-oxadiazol-3-yl)-2,3-dihydrobenzofuran-3-yl)-1-methyl-1H-pyrazole-4-carboxamide] | 0.7 | 2.1
Cn1nccc1C(=O)NC1COc2cc(-c3noc(C(F)F)n3)ccc21 (stereo not shown) [Compound 123, N-(6-(5-(difluoromethyl)-1,2,4-oxadiazol-3-yl)-2,3-dihydrobenzofuran-3-yl)-1-methyl-1H-pyrazole-5-carboxamide] | 0.5 | 1.7
Cc1noc(-c2ccc3c(c2)CC[C@H]3NC(=O)c2cccc(CO)c2)n1 [Compound 706, (R)-3-(hydroxymethyl)-N-(5-(3-methyl-1,2,4-oxadiazol-5-yl)-2,3-dihydro-1H-inden-1-yl)benzamide] | 0.6 | 2.5
CCc1nc(-c2ccc3c(c2)CC[C@H]3NC(=O)c2ccc(=O)n(CC)c2)no1 [Compound 641, (R)-1-ethyl-N-(5-(5-ethyl-1,2,4-oxadiazol-3-yl)-2,3-dihydro-1H-inden-1-yl)-6-oxo-1,6-dihydropyridine-3-carboxamide] | 1.4 | 5.7
O=C(N[C@@H]1COc2cc(-c3noc(C(F)F)n3)ccc21)c1cc(CO)ccn1 [Compound 708, (S)-N-(6-(5-(difluoromethyl)-1,2,4-oxadiazol-3-yl)-2,3-dihydrobenzofuran-3-yl)-4-(hydroxymethyl)picolinamide] | 0.6 | 2.8
CCc1nc(-c2ccc3c(c2)CC[C@H]3NC(=O)C2CCCCN2C)no1 (stereo partly drawn) [Compound 353, N-((R)-5-(5-ethyl-1,2,4-oxadiazol-3-yl)-2,3-dihydro-1H-inden-1-yl)-1-methylpiperidine-2-carboxamide] | 29.0 | > 39.2
CCc1nc(-c2ccc3c(c2)CC[C@H]3NC(=O)c2cnn(CC(=O)OC)c2)no1 [Compound 473, methyl (R)-2-(4-((5-(5-ethyl-1,2,4-oxadiazol-3-yl)-2,3-dihydro-1H-inden-1-yl)carbamoyl)-1H-pyrazol-1-yl)acetate] | 1.1 | 3.8
O=C(NC1CCc2cc(-c3noc(C(F)F)n3)ccc21)c1cnn2c1CCC2 (stereo not shown) [Compound 36, N-(5-(5-(difluoromethyl)-1,2,4-oxadiazol-3-yl)-2,3-dihydro-1H-inden-1-yl)-5,6-dihydro-4H-pyrrolo[1,2-b]pyrazole-3-carboxamide] | 0.9 | 4.7

Second part, the molecule after the results:

CDMF75 IC15 [µM] | IC50 [µM] | SMILES
1.4 | 4.9 | Cc1nc(-c2ccc3c(c2)CC[C@H]3NC(=O)c2cnc(C)o2)no1 [Compound 48, (R)-2-methyl-N-(5-(5-methyl-1,2,4-oxadiazol-3-yl)-2,3-dihydro-1H-inden-1-yl)oxazole-5-carboxamide]
4.3 | 14.1 | Cc1nc(-c2ccc3c(c2)CCC3NC(=O)c2ccnc(O)c2)no1 (stereo not shown) [Compound 43, 2-hydroxy-N-(5-(5-methyl-1,2,4-oxadiazol-3-yl)-2,3-dihydro-1H-inden-1-yl)isonicotinamide]
0.8 | 2.5 | CCc1nc(-c2ccc3c(c2)CC[C@H]3NC(=O)c2cn(CCOC)nc2C)no1 [Compound 596, (R)-N-(5-(5-ethyl-1,2,4-oxadiazol-3-yl)-2,3-dihydro-1H-inden-1-yl)-1-(2-methoxyethyl)-3-methyl-1H-pyrazole-4-carboxamide]
2.1 | 8 | Cc1cc(C(=O)NC2CCc3cc(-c4noc(C(F)F)n4)ccc32)cc(C)n1 (stereo not shown) [Compound 24, N-(5-(5-(difluoromethyl)-1,2,4-oxadiazol-3-yl)-2,3-dihydro-1H-inden-1-yl)-2,6-dimethylisonicotinamide]
0.5 | 1.5 | [2H]C([2H])([2H])c1nc(-c2ccc3c(c2)CC[C@H]3NC(=O)c2ocnc2C)no1 [Compound 251, (R)-4-methyl-N-(5-(5-(methyl-d3)-1,2,4-oxadiazol-3-yl)-2,3-dihydro-1H-inden-1-yl)oxazole-5-carboxamide]
0.6 | 2.9 | Cc1nc(-c2ccc3c(c2)CC[C@H]3NC(=O)c2cccc([C@H](C)O)c2)no1 [Compound 725, 3-((S)-1-hydroxyethyl)-N-((R)-5-(5-methyl-1,2,4-oxadiazol-3-yl)-2,3-dihydro-1H-inden-1-yl)benzamide]
0.7 | 3.4 | Cc1nc(-c2ccc3c(c2)CC[C@H]3NC(=O)c2cc(C(F)F)ccn2)no1 [Compound 732, (R)-4-(difluoromethyl)-N-(5-(5-methyl-1,2,4-oxadiazol-3-yl)-2,3-dihydro-1H-inden-1-yl)picolinamide]
31.0 | > 39.2 | Cc1ncccc1C(=O)NC1CCc2cc(-c3noc(C(F)F)n3)ccc21 (stereo not shown) [Compound 39, N-(5-(5-(difluoromethyl)-1,2,4-oxadiazol-3-yl)-2,3-dihydro-1H-inden-1-yl)-2-methylnicotinamide]
1.7 | 6.8 | COCc1nc(-c2ccc3c(c2)CC[C@H]3NC(=O)c2cc(C)no2)no1 [Compound 688, (R)-N-(5-(5-(methoxymethyl)-1,2,4-oxadiazol-3-yl)-2,3-dihydro-1H-inden-1-yl)-3-methylisoxazole-5-carboxamide]
0.4 | 1.3 | CCc1nc(-c2ccc3c(c2)CC[C@H]3NC(=O)c2cnn(C)c2C)no1 [Compound 571, (R)-N-(5-(5-ethyl-1,2,4-oxadiazol-3-yl)-2,3-dihydro-1H-inden-1-yl)-1,5-dimethyl-1H-pyrazole-4-carboxamide]
2.0 | 8.6 | CCc1nc(-c2ccc3c(c2)CC[C@H]3NC(=O)c2ccnc(C(C)(C)O)c2)no1 [Compound 610, (R)-N-(5-(5-ethyl-1,2,4-oxadiazol-3-yl)-2,3-dihydro-1H-inden-1-yl)-2-(2-hydroxypropan-2-yl)isonicotinamide]
39.2 | > 39.2 | Cc1cc(C(=O)NC2CCc3cc(-c4nc(C)co4)ccc32)ccn1 (stereo not shown) [Compound 173, 2-methyl-N-(5-(4-methyloxazol-2-yl)-2,3-dihydro-1H-inden-1-yl)isonicotinamide]
2.9 | 15.4 | CCc1nc(-c2ccc3c(c2)CC[C@H]3NC(=O)c2ccnn2CCO)no1 [Compound 607, (R)-N-(5-(5-ethyl-1,2,4-oxadiazol-3-yl)-2,3-dihydro-1H-inden-1-yl)-1-(2-hydroxyethyl)-1H-pyrazole-5-carboxamide]
0.6 | 2.3 | CCc1nc(-c2ccc3c(c2)CC[C@H]3NC(C)=O)no1 [Compound 405, (R)-N-(5-(5-ethyl-1,2,4-oxadiazol-3-yl)-2,3-dihydro-1H-inden-1-yl)acetamide]
4.3 | 19.5 | CCc1nc(-c2ccc3c(c2)CCCC3NC(=O)c2cnn(C)c2)no1 (stereo not shown) [Compound 515, N-(6-(5-ethyl-1,2,4-oxadiazol-3-yl)-1,2,3,4-tetrahydronaphthalen-1-yl)-1-methyl-1H-pyrazole-4-carboxamide]
0.8 | 3 | CCc1nc(-c2ccc3c(c2)CC[C@H]3NC(=O)c2ccc(C)nc2)no1 [Compound 625, (R)-N-(5-(5-ethyl-1,2,4-oxadiazol-3-yl)-2,3-dihydro-1H-inden-1-yl)-6-methylnicotinamide]
0.9 | 4.1 | CCOCCn1cc(C(=O)N[C@@H]2CCc3cc(-c4noc(CC)n4)ccc32)cn1 [Compound 573, (R)-1-(2-ethoxyethyl)-N-(5-(5-ethyl-1,2,4-oxadiazol-3-yl)-2,3-dihydro-1H-inden-1-yl)-1H-pyrazole-4-carboxamide]
13.1 | 39.2 | C[C@@H](O)c1nc(-c2ccc3c(c2)CC[C@H]3NC(=O)c2cnn(C)c2)no1 [Compound 550, N-{(1R)-5-[5-((1R)-1-hydroxyethyl)(1,2,4-oxadiazol-3-yl)]indanyl}(1-methylpyrazol-4-yl)carboxamide]
